Test results taken from patent US20240228556A9, “NOVEL CANINE ODORANT BINDING PROTEINS” (SPECIALITES PET FOOD, priority 2021, published 2024).
Residue numbers refer to the chain shown, from its start. Values belong to the molecule of their own block, whether it stands above or below them.

Tests used:
[1] = target: T1, CfamOBP2-K83 (variant of Seq ID No 15) (Canis lupus familiaris, UniProt O18874, E83K); assay: Fluorescence competitive binding assay (NPN displacement); settings: 2 μM OBP, 4 μM NPN, 20° C., pH 7.5, odorant 0.5-20 μM
T1 construct: His tag (from pQE31 vector) (N); made in house; host or cells: E. coli M15 (plasmid pQE31)
T1 sequence (O18874 19-180 E83K): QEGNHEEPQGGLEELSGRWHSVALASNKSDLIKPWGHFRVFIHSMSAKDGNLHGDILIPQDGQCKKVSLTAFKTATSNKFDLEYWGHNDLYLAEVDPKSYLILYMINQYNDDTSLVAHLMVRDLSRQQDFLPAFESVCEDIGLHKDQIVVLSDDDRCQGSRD
Protocol: (§1) Binding experiments were performed at 20° C. on a spectrofluorometer (Cary-Eclipse (Agilent, USA)) equipped with magnetic stirrers and a Peltier control temperature unit. The fluorescent probes: 1-N-phenylnaphthylamine (NPN) (Sigma, USA), 8-anilinonaphthalene-1-sulfonic acid (1,8-ANS) (Sigma, USA), and SYPRO™ orange (ThermoFischer, France) were excited at 337 nm, 372 nm and 490 nm respectively. Emission spectra were recorded between 350 and 500 nm for NPN; 400 and 600 nm for 1,8-ANS and 510 and 700 nm for SYPRO orange. Fluorescent probe binding experiments were performed in a 2 mL cuvette of 1 cm path length containing 2 μM OBPs in 50 mM potassium phosphate buffer at pH 7.5. The fluorescent probes were prepared in 100% MeOH at 0.1, 1, 10 and 100 mM. The concentration of the different fluorescent probes was increased into the 1 mL solution containing CfamOBPs until the adding allow to reach a fluorescence maximum of emission intensity. The binding curves were then traced using SigmaPlot 12.5 software.
(§2) Ligand competitive binding experiments were performed in cuvettes containing 2 μM OBPs, 10 μM fluorescent probe for CfamOBP1 and its variant (Seq ID No 14) and CfamOBP3, 4 μM fluorescent probe for CfamOBP2 and its variant (Seq ID No 15) and 1.25× fluorescent probe for CfamOBP4, in 50 mM potassium phosphate buffer at pH 7.5.
(§3) Odorants were prepared in 100% MeOH and aliquots were added to final concentrations of 0.5-20 μM. The experiments were performed in triplicate. The obtained data were then traced and analysed using SigmaPlot 12.5 software.

CfamOBP2 = target: T2, CfamOBP2 (Canis lupus familiaris, UniProt O18874); assay: as above; settings: 2 μM OBP, 4 μM NPN, 20° C., pH 7.5, odorant 0.5-20 μM
T2 construct: His tag (from pQE31 vector) (N); made in house; host or cells: E. coli M15 (plasmid pQE31)
T2 sequence (O18874 19-180): T1 sequence (O18874 19-180 E83K) with K65E
Protocol: as §1, §2, §3

CfamOBP3 = target: T3, CfamOBP3 (Canis lupus familiaris, UniProt H2B3G5); assay: as above; settings: 2 μM OBP, 10 μM NPN, 20° C., pH 7.5, odorant 0.5-20 μM
T3 construct: His tag (from pQE31 vector) (N); made in house; host or cells: E. coli M15 (plasmid pQE31)
T3 sequence (H2B3G5 16-190): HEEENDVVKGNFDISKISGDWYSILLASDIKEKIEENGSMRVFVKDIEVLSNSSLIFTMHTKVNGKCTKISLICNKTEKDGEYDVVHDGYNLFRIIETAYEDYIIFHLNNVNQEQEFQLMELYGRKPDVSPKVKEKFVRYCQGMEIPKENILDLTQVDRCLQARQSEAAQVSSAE
Protocol: as §1, §2, §3

[2] = target: T4, CfamOBP3-102Y (mutant of Seq ID No 35) (Canis lupus familiaris, UniProt H2B3G5, H102Y); assay: Isothermal titration calorimetry; type: binding; settings: ITC at 25° C., 25 μM protein, 250 μM odorant, pH 7.5; mutant compared with CfamOBP3
T4 construct: His tag (MRGSHHHHHH leader of pQE31, then TDP from the BamHI site) (N); made in house; host or cells: E. coli M15 (plasmid pQE31)
T4 sequence (H2B3G5 16-190 H102Y): T3 sequence (H2B3G5 16-190) with H87Y
Protocol: Titration experiments were carried at 25° C. using isothermal titration microcalorimeter VP-ITC system (Malvern Instruments, Malvern, UK). 100 mM odorant solution in MeOH were diluted to 250 μM into 100 mM potassium phosphate buffer, pH 7.5 and loaded into the syringe. Protein solutions were prepared at 25 μM in the phosphate buffer and degassed directly prior to experiment and injected into the measure cell. Injections of 10 μL ligand solution into the protein containing cell were performed at time intervals of 210 s with a total of 25 injections. Analysis of the experimental data was performed using the Origin 5.0 program (Malvern Instruments, Malvern, UK) and fitted by a model of one binding site. Binding parameters such as stoichiometry (n) and the association constant (KA) were determined by this fitting.

CfamOBP1 = target: T5, CfamOBP1 (Canis lupus familiaris, UniProt O18873); assay: Fluorescence competitive binding assay (1,8-ANS displacement); settings: 2 μM OBP, 10 μM 1,8-ANS, 20° C., pH 7.5, odorant 0.5-20 μM
T5 construct: His tag (from pQE31 vector) (N); made in house; host or cells: E. coli M15 (plasmid pQE31)
Protocol: as §1, with “software. […]” for “software.”
(§4) Odorants were prepared in 100% MeOH and aliquots were added to final concentrations of 0.5-20 μM. […] The obtained data were then traced and analysed using SigmaPlot 12.5 software.

[3] = target: T6, CfamOBP1-L52 (variant of Seq ID No 14) (Canis lupus familiaris, UniProt O18873, S52L); assay: as above; settings: 2 μM OBP, 10 μM 1,8-ANS, 20° C., pH 7.5, odorant 0.5-20 μM
T6 construct: His tag (from pQE31 vector) (N); made in house; host or cells: E. coli M15 (plasmid pQE31)
T6 sequence (O18873 19-174 S52L): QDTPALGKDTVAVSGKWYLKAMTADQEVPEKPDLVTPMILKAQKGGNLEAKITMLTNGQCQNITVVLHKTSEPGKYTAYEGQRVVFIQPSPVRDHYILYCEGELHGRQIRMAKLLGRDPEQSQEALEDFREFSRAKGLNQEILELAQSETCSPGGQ
Protocol: as §1, with “software. […]” for “software.”
as §4

T5 sequence (O18873 19-174): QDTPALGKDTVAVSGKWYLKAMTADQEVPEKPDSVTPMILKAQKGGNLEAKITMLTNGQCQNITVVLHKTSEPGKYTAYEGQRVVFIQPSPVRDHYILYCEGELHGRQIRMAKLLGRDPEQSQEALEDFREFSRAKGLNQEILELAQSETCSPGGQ

- displacement of the fluorescent probe [1]: able to displace the probes
- displacement of the fluorescent probe (CfamOBP2): able to displace the probes
Structure (SMILES): CC(C)CCCC(C)CCO (stereo not drawn) [DMO, 3,7-dimethyl-1-octanol]

- displacement of the fluorescent probe (CfamOBP3): able to displace the probes
- change of Ka value (affinity) versus CfamOBP3 [2]: eight fold increase
Structure (SMILES): COc1nccnc1CC(C)C [IBMP, 2-isobutyl-3-methoxypyrazine]

- displacement of the fluorescent probe (CfamOBP1): able to displace the probes
- displacement of the fluorescent probe [3]: able to displace the probes
Structure (SMILES): CC(C)=CCCC(C)CC=O (stereo not drawn) [citronellal]
